Laboratory results published in patent US11878984B2, “Compounds derived from Streptomyces and uses thereof” (KOREA INSTITUTE OF OCEAN SCIENCE & TECHNOLOGY, priority 2018, dated 2024).

Columns and labels:
BV-2 microglial cells [1] = assay: Nitrite assay: LPS-stimulated NO production in BV-2 microglial cells; format: cell-based; settings: for NO production decreased compared to the control group: 100 μM compound
Protocol: (§1) BV-2 microglial cells were cultured in Dulbecco's modified Eagle medium supplemented with 5% Fetal bovine serum and 1% 100 units/mL of penicillin/streptomycin at 37° C. in a humidified 5% CO2 incubator.
For Nitrite assay, the BV-2 microglial cells seeded at a density of 1.25×10^5 cell/each well in 24-well plate were pretreated with various concentrations of compounds 1-4 for 1 h, followed by LPS (200 ng/mL) for 24 h. A range of sodium nitrite dilutions was used to obtain a standard curve with the amount of nitrite in each sample. Absorbance was determined at 540 nm using a microplate reader (Tecan Trading AG).

BV-2 microglial cells [2] = assay: MTT assay: cell viability of LPS-stimulated BV-2 microglial cells; format: cell-based
Protocol: as §1
The BV-2 microglial cells seeded at a density of 1.25×10^5 cell/each well in 24-well plate were pretreated with various concentration of compounds (12.5, 25, 50, and 100 μM for compounds 1-3 and 1, 2, 4, and 8 μM for compound 4) for 1 h, followed by LPS (200 ng/mL) for 24 h. 20 μL of MTT (2 mg/mL) solution was added to each well. After 1 h, the supernatant was sucked out and crystals of formazan were dissolved in DMSO. Optical density was measured at 550 nm using a microplate reader (Tecan Trading AG) and values were determined in comparison to control cells.

[3] = pretreated 1 h, then LPS (200 ng/mL) 24 h

Compound | NO production decreased compared to the control group (BV-2 microglial cells [1]; [3]) | cellular viability (BV-2 microglial cells [2]; 1, 2, 4 and 8 μM, pretreated 1 h, then LPS (200 ng/mL) 24 h, MTT, compared to control cells) | cytotoxicity (BV-2 microglial cells [2]; low concentration of less than 10 μM, BV-2 microglial cells (FIG. 12)) | NO production reduced compared to the control group (BV-2 microglial cells [1]; compound at low concentration of 1 to 8 μM, pretreated 1 h, then LPS (200 ng/mL) 24 h) | NO production inhibiting effect (BV-2 microglial cells [1]; low concentration of less than 10 μM)
C/C=C/C=C/CC[C@]12OCC[C@@H]3OC[C@](O)(CO1)[C@@H]32 [Compound 1, (2aS,2a^1R,4aS,7aS)-7a-((3E,5E)-hepta-3,5-diene-1-yl)tetrahydro-2H,6H,1,4,7-trioxacyclopenta[cd]indene-2a(3H)-ol] | about 22% | – | – | – | –
C/C=C/C=C/C=C/[C@]12OCC[C@@H]3OC[C@](O)(CO1)[C@@H]32 [Compound 2, (2aS,2a^1R,4aS,7aS)-7a-((1E,3E,5E)-hepta-1,3,5-triene-1-yl)tetrahydro-2H, 6H,1,4,7-trioxacyclopenta[cd]indene-2a(3H)-ol] | about 25% | – | – | – | –
C/C=C/C=C/CC[C@]12OCC[C@@H]3OC[C@](OC(=O)c4ccccc4N)(CO1)[C@@H]32 [Compound 3, (2aS,2a^1R,4aS,7aS)-7a-((3E,5E)-hepta-3,5-diene-1-yl)tetrahydro-2H,6H,1,4,7-trioxacyclopenta[cd]indene-2a(3H)-yl-2-aminobenzoate] | about 50% | – | – | – | –
C/C=C/C=C/C=C/[C@]12OCC[C@@H]3OC[C@](OC(=O)c4ccccc4N)(CO1)[C@@H]32 [Compound 4, (2aS,2a^1R,4aS,7aS)-7a-((1E, 3E,5E)-hepta-1,3,5-triene-1-yl)tetrahydro-2H, 6H,1,4,7-trioxacyclopenta[cd]indene-2a(3H)-yl-2-aminobenzoate] | – | less than 80% | cytotoxicity | about 93% | strong NO production inhibiting effect
